Results as given in US9220771B2, “Peptide for use in the treatment of breast cancer and/or bone metastases” (MERCK PATENT GMBH, priority 2010, dated 2015).

Tests used:
[1] = test system: MDA-MB-231 breast cancer bone metastases; assay: DCE-MRI of experimental breast cancer bone metastases (amplitude A, exchange rate constant kep); assay type: in vivo, nude rats (RNU strain); settings: cilengitide 75 mg/kg
Procedure: T2-weighted imaging is performed using a turbo spin echo sequence (orientation axial, TR 3240 ms, TE 81 ms, matrix 152×256, FOV 90×53.4 mm^2, slice thickness 1.5 mm, 3 averages, scan time 3 min 40 s). For dynamic contrast-enhanced MRI, a saturation recovery turbo flash sequence through the largest diameter of the tumor (orientation axial, TR 373 ms, TE 1.86 ms, matrix 192×144, FOV 130×97.5 mm, slice thickness 5 mm, measurements 512, averages 1, scan time 6 min 55 s) is used. After 20 s baseline, 0.1 mmol/kg Gd-DTPA (Magnevist; Bayer Schering Pharma, Berlin, Germany) is intravenously infused for a time period of 10 s.
Unenhanced VCT images and MRI-acquired T2-weighted images are analyzed using the Medical Imaging Interaction Toolkit (MITK, Heidelberg, Germany) to determine volumes of osteolytic lesions and soft tissue components, respectively. DCE-MRI acquired data is analyzed using the Dynalab workstation (Mevis Research, Bremen, Germany) according to the two-compartment model of Brix to determine the parameters amplitude A and exchange rate constant kep, as described.^23, 30 Briefly, the injected contrast media is distributed in both compartments (intravascular space and extravascular, interstitial space). The accumulation of contrast agent in these compartments over time is characterized by the amplitude A (associated with blood volume), whereas the exchange of contrast agent between the intravascular space and the interstitial space is characterized by the exchange rate constant kep (associated with vessel permeability). For determination of the respective values of the amplitude A and kep of bone metastases in our study, a region of interest is placed around the soft tissue component on color maps for A and kep, respectively, using the Dynalab workstation (Mevis Research, Bremen, Germany).
For each animal, volumes of the osteolysis and soft tissue component, amplitude A and exchange rate constant kep are plotted versus time after tumor cell inoculation (due to technical reasons one animal of the control group can not be evaluated for the amplitude A and kep). Normalization of the data to the corresponding initial value at day 30 for each animal is performed and changes are expressed in percent. For statistical comparisons of data from non-invasive imaging and histological analysis, the respective values are compared between the control and treatment groups using the two-sided Wilcoxon-Test; p-values <0.05 are considered significant.

[2] = test system: MDA-MB-231 breast cancer bone metastases; assay: Histology / immunofluorescence of experimental breast cancer bone metastases; assay type: in vivo, nude rats (RNU strain); settings: after 4 weeks treatment with cilengitide; control rats 8.8 μm; p<0.01
Procedure: At the end of the observation period lower limbs of each animal are amputated and muscular tissue removed. Bones with surrounding soft tissue tumors are stored in 70% ethanol and embedded in a methylmethacrylat-based compound (Technovit® 9100 NEU, Heraeus Kulzer, Hanau, Germany) according to the instructions of the manufacturer. 5 μm-thick sections are cut (Microm HM340e microtome; Thermo Scientific, Waltham, Mass.), mounted on SuperFrost Plus microscope slides and dried overnight at 60° C. Additional freshly removed soft tissue tumors are embedded in optimum cutting temperature compound (OCT, TissueTec, Sakura, Japan) and stored at −80° C. […] Mean positive area fractions of SMA and collagen IV (in percent) as well as mean vessel diameters (in μm) are determined from 4 representative animals of each group analyzing 10 fields of view chosen randomly from each rat using Analysis Software (cell^F; Olympus Soft Imaging Solutions, Münster, Germany). […]
For light microscopical analysis, sections are stained with Mayer's hematoxylin (Carl Roth, Karlsruhe, Germany) and eosin (Merck, Darmstadt, Germany), mounted using Eukitt mounting medium (O. Kindler, Freiburg, Germany) and analyzed using a microscope (DM LB; Leica, Wetzlar, Germany) equipped with a digital camera (DFC 320; Leica, Wetzlar, Germany). […]

[3] = test system: MDA-MB468 human breast tumour cells; assay: Study 007: MDA-MB-468 orthotopic primary tumor growth; assay type: in vivo, female BALB/c nu/nu mice; settings: all three dosing groups (75, 150 or 300 mg/kg), daily s.c.; Vehicle Control higher than 350 mm^3
Procedure: MDA-MB468 human breast tumour cells were orthotopically inoculated into the third mammary fat pad of female BALB/c nu/nu mice. The mice were randomised into groups when the tumors reached a size of approximately 40 mm^3.
The mice in each group received treatment with either Vehicle Control (Placebo) or EMD 121974 (75, 150 or 300 mg/kg) by daily subcutaneous injection. Body weight and tumour volume measurements were made for all mice three times per week.

## CC(C)[C@H]1C(=O)N[C@@H](CCCN=C(N)N)C(=O)NCC(=O)N[C@@H](CC(=O)O)C(=O)N[C@H](Cc2ccccc2)C(=O)N1C [Cilengitide, cyclo-(Arg-Gly-Asp-DPhe-NMeVal)]
[1]; day 35, p>0.05 vs control
  DCE-MRI amplitude A (associated with blood volume), mean relative value: 97 % of initial value
  DCE-MRI exchange rate constant kep (associated with vessel permeability), mean relative value: 69 % of initial value
[1]; day 45, p<0.05 vs control
  DCE-MRI amplitude A (associated with blood volume), mean relative value: 102 % of initial value
[1]; day 45, p>0.05 vs control
  DCE-MRI exchange rate constant kep (associated with vessel permeability), mean relative value: 88 % of initial value
[1]; day 55, p<0.05 vs control
  DCE-MRI amplitude A (associated with blood volume), mean relative value: 93 % of initial value
  DCE-MRI exchange rate constant kep (associated with vessel permeability), mean relative value: 72 % of initial value
[2]
  mean vessel diameter in bone metastases: 6.6 μm
[3]
  tumour volume on day 60: below 200 mm^3
